Reference: US20250388592A1 (REMYND N.V., priority 2022, published 2025)

Test system: M17_3TAU(P301L) cells
Experiment: TAU-induced cytotoxicity (LDH) in the neuroblastoma tauopathy model
Format: cell-based
Settings: Homo sapiens, 168 h, inhibition of TAU-induced toxicity, 7 days retinoic acid differentiation, LDH readout
In short: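 Stably transfected BE-M17 cells expressing human TAU-P301L, seeded in serum-free detection medium, then differentiated with 2.5 μM RA (added in equal volume) for 7 days at 37° C/5% CO2 to induce TAU aggregation. Cytotoxicity = supernatant LDH increase over total LDH; EC50 from dose-dependent inhibition curves.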

Compound	EC50
O=C(Cc1ccc(Cl)cc1)N1CC2(CN(Cc3ccccc3)C2)C1 [Cpd B003, 1-(6-benzyl-2,6-diazaspiro[3.3]heptan-2-yl)-2-(4-chlorophenyl)ethanone]	6.97 nM
O=C(NC1CCC(F)(F)CC1)N1CC2(CN(Cc3c(F)cccc3C(F)(F)F)C2)C1 [Cpd B208]	252 nM
Cn1cc(CN2CC3(C2)CN(C(=O)CC2CCC(F)(F)CC2)C3)cn1 [Cpd B119]	46 nM
Cc1nn(C)cc1CN1CC2(C1)CN(C(=O)NCc1ccc(F)cc1)C2 [Cpd B426]	850 nM
O=C(OCC12CC(F)(C1)C2)N1CC2(CN(Cc3ccc(F)cc3)C2)C1 [Cpd B129]	97 nM
Cn1cc(Cl)c(CN2CC3(C2)CN(C(=O)OC2CCC(F)(F)CC2)C3)n1 [Cpd B145]	2.78 nM
Cc1cccnc1CN1CC2(C1)CN(C(=O)NCC1CCCCC1)C2 [Cpd B177]	5.39 nM
COc1cccc(CN2CC3(C2)CN(S(=O)(=O)Cc2ccc(C(F)(F)F)cc2)C3)c1 [Cpd B224]	12.2 nM
O=C(Cc1ccc(F)cc1)N1CC2(CN(Cc3ccccc3OC(F)(F)F)C2)C1 [Cpd B013, 2-(4-Fluoro-phenyl)-1-[6-(2-trifluoromethoxy-benzyl)-2,6-diaza-spiro[3.3]hept-2-yl]-ethanone]	6.27 nM
O=C(Nc1ccc(OC(F)F)cc1)N1CC2(CN(Cc3ccc(F)cc3)C2)C1 [Cpd B465]	38.1 nM
Cc1cccc(CCN2CC3(C2)CN(C(=O)Cc2ccc(F)cc2)C3)c1 [Cpd B028, 2-(4-Fluoro-phenyl)-1-[6-(2-m-tolyl-ethyl)-2,6-diaza-spiro[3.3]hept-2-yl]-ethanone]	12.9 nM
Cc1ccc(CN2CC3(C2)CN(C(=O)NCc2ccc(F)cc2)C3)[nH]1 [Cpd B421]	981 nM
Cc1ccc(CNC2CC3(C2)CC(Nc2nc(Cc4ccc(Cl)cc4)ns2)C3)cc1 (centres unmarked) [Cpd B321, N-(3-(4-chlorobenzyl)-1,2,4-thiadiazol-5-yl)-N′-(4-methylbenzyl) spiro[3.3]heptane-2,6-diamine]	8.6 nM
COc1ccc(CCCN2CC3(C2)CN(C(=O)Cc2ccc(Cl)cc2)C3)cc1 [Cpd B059, 2-(4-chlorophenyl)-1-(6-(3-(4-methoxyphenyl)propyl)-2,6-diazaspiro[3.3]heptan-2-yl)ethanone]	1.23 nM
COc1cccc(CN2CC3(C2)CN(C(=O)NCC2CCCCC2)C3)c1 [Cpd B184]	5.12 nM
Clc1ccc(Cc2nsc(NC3CC4(CC(NCc5ccc(Cl)c(Cl)c5)C4)C3)n2)cc1 (centres unmarked) [Cpd B306, N-(3-(4-chlorobenzyl)-1,2,4-thiadiazol-5-yl)-N′-(3,4-dichlorobenzyl) spiro[3.3]heptane-2,6-diamine]	35.7 nM
O=C(Cc1ccccn1)N1CC2(CN(Cc3ccc(F)cc3)C2)C1 [Cpd B414]	2710 nM
COc1ccc(CNC2CC3(C2)CC(Nc2nc(Cc4ccc(Cl)cc4)ns2)C3)cc1OC (centres unmarked) [Cpd B317, N-(3-(4-chlorobenzyl)-1,2,4-thiadiazol-5-yl)-N′-(3,4-dimethoxybenzyl) spiro[3.3]heptane-2,6-diamine]	41 nM
O=C(Cc1ccc(Cl)cc1)N1CC2(CN(Cc3ccccc3OC(F)(F)F)C2)C1 [Cpd B034, 2-(4-chlorophenyl)-1-(6-(2-(trifluoromethoxy)benzyl)-2,6-diazaspiro[3.3]heptan-2-yl)ethanone]	6.04 nM
O=C(OCC1CCC(F)(F)CC1)N1CC2(CN(Cc3ncccc3C(F)(F)F)C2)C1 [Cpd B163]	3.67 nM

Compound	EC50
Cn1cc(Cl)c(CN2CC3(C2)CN(C(=O)NCC2CCC(F)(F)CC2)C3)n1 [Cpd B202]	14.1 nM
COc1ccccc1CCCN1CC2(C1)CN(C(=O)Cc1ccc(Cl)cc1)C2 [Cpd B058, 2-(4-chlorophenyl)-1-(6-(3-(2-methoxyphenyl)propyl)-2,6-diazaspiro[3.3]heptan-2-yl)ethanone]	1.72 nM
Cc1cc(CN2CC3(C2)CN(C(=O)Cc2ccc(F)cc2)C3)no1 [Cpd B021, 2-(4-Fluoro-phenyl)-1-[6-(5-methyl-isoxazol-3-ylmethyl)-2,6-diaza-spiro[3.3]hept-2-yl]-ethanone]	167 nM
COc1ccc(CCNC2CC3(C2)CC(Nc2nc(Cc4ccc(Cl)cc4)ns2)C3)cc1 (centres unmarked) [Cpd B333, N-(3-(4-chlorobenzyl)-1,2,4-thiadiazol-5-yl)-N′-(4-methoxyphenethyl) spiro[3.3]heptane-2,6-diamine]	2 nM
COc1cccc(CN2CC3(C2)CN(C(=O)Cc2ccc(Cl)cc2)C3)c1 [Cpd B031, 2-(4-chlorophenyl)-1-(6-(3-methoxybenzyl)-2,6-diazaspiro[3.3]heptan-2-yl)ethanone]	2.01 nM
COc1cccc(CN2CC3(C2)CN(S(=O)(=O)Cc2ccc(F)cc2)C3)c1 [Cpd B221]	18.6 nM
Cn1cnc(CN2CC3(C2)CN(C(=O)CC2CCC(F)(F)CC2)C3)c1 [Cpd B126]	192 nM
Cc1cccnc1CN1CC2(C1)CN(C(=O)c1cc3ccccc3s1)C2 [Cpd B427]	846 nM
O=S(=O)(Cc1ccc(C(F)(F)F)cc1)N1CC2(CN(Cc3ccc(F)cc3)C2)C1 [Cpd B216]	5.69 nM
COc1cc(OC)nc(CN2CC3(C2)CN(C(=O)Cc2ccc(Cl)cc2)C3)n1 [Cpd B036, 2-(4-chlorophenyl)-1-(6-((4,6-dimethoxypyrimidin-2-yl)methyl)-2,6-diazaspiro[3.3]heptan-2-yl)ethanone]	17.6 nM
O=C(Cc1ccc(Cl)cc1)N1CC2(CN(CC3CCCCC3)C2)C1 [Cpd B056, 2-(4-chlorophenyl)-1-(6-(cyclohexylmethyl)-2,6-diazaspiro[3.3]heptan-2-yl)ethanone]	1.44 nM
Cc1cccnc1CN1CC2(C1)CN(C(=O)CC13CC(C1)C3)C2 [Cpd B408]	4000 nM
COc1cc(OC)nc(CN2CC3(C2)CN(C(=O)Cc2ccc(F)cc2)C3)n1 [Cpd B064, 1-[6-(4,6-Dimethoxy-pyrimidin-2-ylmethyl)-2,6-diaza-spiro[3.3]hept-2-yl]-2-(4-fluoro-phenyl)-ethanone]	32.8 nM
COc1cccc(CC(=O)N2CC3(CN(Cc4ncccc4C)C3)C2)c1 [Cpd B416]	2220 nM
COc1cccc(CNC2CC3(C2)CC(Nc2nc(Cc4ccc(Cl)cc4)ns2)C3)c1OC (centres unmarked) [Cpd B314, N-(3-(4-chlorobenzyl)-1,2,4-thiadiazol-5-yl)-N′-(2,3-dimethoxybenzyl) spiro[3.3]heptane-2,6-diamine]	3 nM
Cc1csc(CN2CC3(C2)CN(C(=O)CC2CCC(F)(F)CC2)C3)n1 [Cpd B445]	157 nM
Cc1cccnc1CN1CC2(C1)CN(C(=O)Oc1ccc(Cl)cc1)C2 [Cpd B141]	2.57 nM
O=C(Cc1ccc(F)cc1)N1CC2(CN(CCc3cccc(C(F)(F)F)c3)C2)C1 [Cpd B023, 2-(4-Fluoro-phenyl)-1-{6-[2-(3-trifluoromethyl-phenyl)-ethyl]-2,6-diaza-spiro[3.3]hept-2-yl}-ethanone]	18.6 nM
CCc1cc(CC(=O)N2CC3(CN(Cc4ccc(F)cc4)C3)C2)ccn1 [Cpd B415]	2410 nM
Cc1csc(CN2CC3(C2)CN(C(=O)OC2CCC(F)(F)CC2)C3)c1 [Cpd B146]	< 0.19 nM

Compound	EC50
O=C(Nc1cccc(Cl)c1)N1CC2(CN(Cc3ccc(F)cc3)C2)C1 [Cpd B466]	18.6 nM
COc1cccc(CN2CC3(C2)CN(S(=O)(=O)c2ccc(C(F)(F)F)cc2)C3)c1 [Cpd B220]	33.9 nM
O=C(NC1CC(F)(F)C1)N1CC2(CN(Cc3ccc(F)cc3)C2)C1 [Cpd B168]	780 nM
O=C(NC12CC(F)(C1)C2)N1CC2(CN(Cc3ccc(F)cc3)C2)C1 [Cpd B190, 6-(4-fluorobenzyl)-N-(3-fluorobicyclo[1.1.1]pentan-1-yl)-2,6-diazaspiro[3.3]heptane-2-carboxamide]	491 nM
Cc1cccnc1CN1CC2(C1)CN(C(=O)OC1CCC(F)(F)CC1)C2 [Cpd B139]	20.6 nM
O=C(NCC1CCC(F)(F)CC1)N1CC2(CN(Cc3ncccc3C(F)(F)F)C2)C1 [Cpd B197]	12.8 nM
Fc1cc(F)cc(CNC2CC3(C2)CC(Nc2nc(Cc4ccc(Cl)cc4)ns2)C3)c1 (centres unmarked) [Cpd B329, N-(3-(4-chlorobenzyl)-1,2,4-thiadiazol-5-yl)-N′-(3,5-difluorobenzyl) spiro[3.3]heptane-2,6-diamine]	2.3 nM
COc1cccc(CN2CC3(C2)CN(C(=O)NC2CC(F)(F)C2)C3)c1 [Cpd B422]	978 nM
O=C(Cc1ccc(Cl)cc1)N1CC2(CN(Cc3ccccn3)C2)C1 [Cpd B032, 2-(4-chlorophenyl)-1-(6-(pyridin-2-ylmethyl)-2,6-diazaspiro[3.3]heptan-2-yl)ethanone]	48.5 nM
Cc1nc(CN2CC3(C2)CN(C(=O)OCc2ccc(Cl)cc2)C3)cs1 [Cpd B429]	746 nM
O=C(NCC1CCC(F)(F)CC1)N1CC2(CN(Cc3ccc(F)cc3)C2)C1 [Cpd B167, N-((4,4-difluorocyclohexyl)methyl)-6-(4-fluorobenzyl)-2,6-diazaspiro[3.3]heptane-2-carboxamide]	4.17 nM
Cc1cccnc1CN1CC2(C1)CN(C(=O)C(F)(F)c1ccc(F)cc1)C2 [Cpd B087]	1020 nM
Cc1nc(CN2CC3(C2)CN(C(=O)CC2CCC(F)(F)CC2)C3)c[nH]1 [Cpd B125]	705 nM
Cc1nc(CN2CC3(C2)CN(C(=O)COc2ccc(F)cc2)C3)cs1 [Cpd B103]	2000 nM
COc1cccc(CN2CC3(CN(Cc4ccc(F)cc4)C3)C2)c1 [Cpd B226]	1.16 nM
COc1cccc(CNC2CC3(C2)CC(Nc2nc(Cc4ccc(Cl)cc4)ns2)C3)c1 (centres unmarked) [Cpd B310, N-(3-(4-chlorobenzyl)-1,2,4-thiadiazol-5-yl)-N′-(3-methoxybenzyl) spiro[3.3]heptane-2,6-diamine]	4.6 nM
Cc1nc(CN2CC3(C2)CN(C(=O)Cc2cccc(C(F)(F)F)c2)C3)cs1 [Cpd B100]	261 nM
CC(c1ccccc1)N1CC2(CN(C(=O)Cc3ccc(Cl)cc3)C2)C1 (centres unmarked) [Cpd B065, 2-(4-chlorophenyl)-1-(6-(1-phenylethyl)-2,6-diazaspiro[3.3]heptan-2-yl)ethanone]	3.23 nM
Fc1ccc(Cc2nsc(NC3CC4(CC(NCc5ccccc5)C4)C3)n2)cc1 (centres unmarked) [Cpd B301, N-benzyl-N′-(3-(4-fluorobenzyl)-1,2,4-thiadiazol-5-yl) spiro[3.3]heptane-2,6-diamine]	11.2 nM
